“And” between values parts separate entries of the source, which are not always exact repeats. Identical values can stand only once.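 Each compound was tested at five concentrations against cells in 96-well plates for 48 hours. GI50 marks 50% less growth. TGI is the concentration that stops growth completely.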

This passage reports TGI and GI50 results from PubChem BioAssay (NCI).

Among the test systems are COLO 205 colon; PC-3 prostate; M14 melanoma; HL-60(TB) leukemia; MALME-3M melanoma; SF-295 CNS; CCRF-CEM leukemia; SK-MEL-2 melanoma; UACC-257 melanoma; T-47D breast.
Holding throughout (assay): NCI anticancer screen, dose series, 48 h

For the compound `COc1ccc(/C=C/C(=O)C(C)(C)Br)cc1`, the TGI in the assay on COLO 205 colon is 29.5 µM; in the assay with PC-3 prostate it was 36.9 µM; in the assay on M14 melanoma, 3.79 µM; in the assay on HL-60(TB) leukemia, 69.2 µM; in the assay with MALME-3M melanoma it was 32 µM; in the assay on SF-295 CNS, 43.9 µM. Also, the TGI in the assay with CCRF-CEM leukemia is 5.22 µM; with SK-MEL-2 melanoma, 27.5 µM; with UACC-257 melanoma it was 30.2 µM; with T-47D breast it was 76.2 µM.

Regarding `Cn1cnc([N+](=O)[O-])c1Sc1nc(N)nc2nc[nH]c12`, the GI50 with COLO 205 colon is 15 µM; in the assay on PC-3 prostate, 7.91 µM; in the assay on M14 melanoma, 1.28 µM; in the assay with HL-60(TB) leukemia, 5.69 µM; with MALME-3M melanoma it was 13 µM; in the assay on SF-295 CNS, 0.635 µM. Besides, the GI50 is 3.01 µM with CCRF-CEM leukemia, 6.16 µM in the assay on SK-MEL-2 melanoma, 8.38 µM in the assay with UACC-257 melanoma and 8.57 µM in the assay on T-47D breast. The TGI with COLO 205 colon is > 74.5 µM; in the assay with PC-3 prostate it was > 100 µM; in the assay with M14 melanoma, > 100 µM; in the assay on HL-60(TB) leukemia, > 100 µM; in the assay on MALME-3M melanoma, > 100 µM; with SF-295 CNS it was > 100 µM. Besides, the TGI with CCRF-CEM leukemia, with SK-MEL-2 melanoma, in the assay with UACC-257 melanoma and in the assay on T-47D breast was > 100 µM each time.

For `CC[C@@]1(O)C(=O)OCc2c1cc1n(c2=O)Cc2cc3c(N)cccc3nc2-1`, the TGI is 6.22 µM with COLO 205 colon; > 100 µM in the assay with PC-3 prostate; 0.292 µM in the assay on M14 melanoma; 0.51 µM with HL-60(TB) leukemia; 1.88 µM with MALME-3M melanoma; 2.37 µM with SF-295 CNS. Further, the figures for the TGI in the assay with SK-MEL-2 melanoma and in the assay on UACC-257 melanoma were 1.99 µM and 2.99 µM, respectively. For the same compound, the GI50 with M14 melanoma was 0.0042 µM; in the assay with SF-295 CNS it was 0.00874 µM; in the assay on CCRF-CEM leukemia, 0.00158 µM; in the assay with T-47D breast, 0.00662 µM.

For the compound `Cc1cc(NC(=O)NC(=O)c2ccccc2N(C)C)ccc1Oc1ncc(Br)cn1`, the GI50 in the assay on COLO 205 colon was 0.266 µM; in the assay on M14 melanoma it was 0.428 µM; with HL-60(TB) leukemia, 0.0879 µM; in the assay on MALME-3M melanoma, 2.22 µM. For the same compound, the TGI was > 63.1 µM in the assay with PC-3 prostate; > 63.1 µM in the assay with M14 melanoma; 0.388 µM and 0.981 µM in the assay on HL-60(TB) leukemia; > 100 µM in the assay with MALME-3M melanoma; 21.8 µM with SF-295 CNS; 3.5 µM and 11.8 µM with CCRF-CEM leukemia. Moreover, the TGI in the assay with SK-MEL-2 melanoma is > 46.4 µM; in the assay with UACC-257 melanoma it was > 100 µM; with T-47D breast it was > 56.2 µM.

On to `C[C@@H]1C/C=C\C(=O)O[C@H](/C=C/C#C/C=C/C(C)(C)[C@@H](O)c2cccc(O)c2Br)[C@@H](C)/C=C/[C@H](C)C[C@H](OC(N)=O)C1`, for which the GI50 in the assay with COLO 205 colon was 0.0435 µM; in the assay with PC-3 prostate it was 0.045 µM; with M14 melanoma, 0.0236 µM; with HL-60(TB) leukemia, 0.0382 µM; in the assay with MALME-3M melanoma it was 0.0419 µM; in the assay on SF-295 CNS, 0.0212 µM. Also, the GI50 is 0.0419 µM with CCRF-CEM leukemia, 0.0346 µM in the assay on SK-MEL-2 melanoma, 0.0322 µM in the assay on UACC-257 melanoma and 0.0354 µM with T-47D breast. For the same compound, the TGI in the assay with COLO 205 colon came out at 21.4 µM; in the assay with PC-3 prostate, 17.4 µM; with M14 melanoma, 0.0639 µM; in the assay on HL-60(TB) leukemia, 2.26 µM; in the assay with MALME-3M melanoma it was 4.6 µM; in the assay on SF-295 CNS it was 0.0485 µM. In addition, the TGI with CCRF-CEM leukemia is 33 µM; with SK-MEL-2 melanoma, 1.01 µM; with UACC-257 melanoma, 4.08 µM; with T-47D breast it was 22.9 µM.

As for `CC(=O)Oc1ccc(C2(c3ccc(OC(C)=O)cc3)C(=O)Nc3ccccc32)cc1`, the GI50 in the assay on COLO 205 colon was 0.0741 µM and 0.155 µM; in the assay on PC-3 prostate it was 5.19 µM and 14.3 µM; in the assay on M14 melanoma it was 34.4 µM and 38.2 µM; in the assay on HL-60(TB) leukemia, 15.1 µM and 30.9 µM; in the assay with MALME-3M melanoma it was 64.5 µM and > 100 µM; in the assay on SF-295 CNS, 23.5 µM and 38.3 µM. In addition, the GI50 in the assay with CCRF-CEM leukemia is 25.7 µM and 28.6 µM; in the assay with SK-MEL-2 melanoma, 30.4 µM and 52.8 µM; in the assay with UACC-257 melanoma it was 24.1 µM and 28.2 µM; in the assay on T-47D breast, 0.031 µM and 0.0327 µM. The TGI in the assay on COLO 205 colon was 11.9 µM and 29.8 µM; in the assay on PC-3 prostate it was > 100 µM; with M14 melanoma, > 100 µM; in the assay with HL-60(TB) leukemia, > 71.9 µM; in the assay with MALME-3M melanoma, > 100 µM; in the assay on SF-295 CNS, > 100 µM. In addition, the TGI in the assay with CCRF-CEM leukemia is > 100 µM and 99.3 µM; in the assay on SK-MEL-2 melanoma it was 96.9 µM and > 100 µM; with UACC-257 melanoma it was 79.4 µM and > 100 µM; with T-47D breast, 0.112 µM and 0.129 µM.

Turning to `COc1ccc2c(c1)nc1n2C(c2ccc(F)cc2)SC1` (stereo not given), the GI50 in the assay with COLO 205 colon is 16 µM; in the assay with PC-3 prostate it was 27.1 µM; in the assay with M14 melanoma it was 26.3 µM; in the assay with HL-60(TB) leukemia it was 28.4 µM; in the assay on MALME-3M melanoma, 23.5 µM; in the assay on SF-295 CNS, 27.9 µM. Besides, the GI50 is 25.9 µM with CCRF-CEM leukemia, 20.4 µM with SK-MEL-2 melanoma, 28.7 µM in the assay with UACC-257 melanoma and 14.4 µM with T-47D breast. In addition, the TGI in the assay with COLO 205 colon is 37.4 µM; in the assay on PC-3 prostate, > 100 µM; in the assay with M14 melanoma, 83.5 µM; with HL-60(TB) leukemia, > 100 µM; with MALME-3M melanoma, 63 µM; in the assay on SF-295 CNS, > 100 µM. The TGI in the assay on CCRF-CEM leukemia is > 100 µM; in the assay on SK-MEL-2 melanoma it was 65 µM; with UACC-257 melanoma it was > 100 µM; in the assay on T-47D breast it was 51 µM.

Regarding `COc1ccc(-c2nc3c(c(=O)n2C(C)=O)C(c2ccc(Cl)cc2)c2sc4c(Cl)cccc4c2O3)cc1` (stereo not given), the GI50 in the assay with COLO 205 colon is 0.355 µM; with PC-3 prostate, 0.337 µM; in the assay with M14 melanoma it was 0.239 µM; with HL-60(TB) leukemia, 0.3 µM; with MALME-3M melanoma, 0.409 µM; with SF-295 CNS, 0.256 µM. The GI50 is 0.462 µM in the assay on CCRF-CEM leukemia, 0.374 µM in the assay with SK-MEL-2 melanoma, 0.776 µM in the assay with UACC-257 melanoma and 0.326 µM in the assay on T-47D breast. For the same compound, the TGI with COLO 205 colon amounted to 1.32 µM; with PC-3 prostate, 2.39 µM; in the assay with M14 melanoma, 0.973 µM; with HL-60(TB) leukemia it was 0.982 µM; in the assay with MALME-3M melanoma, 2.62 µM; in the assay with SF-295 CNS, 1.27 µM. Besides, the TGI in the assay on CCRF-CEM leukemia was determined as 6.28 µM; with SK-MEL-2 melanoma, 1.69 µM; in the assay with UACC-257 melanoma it was 3.29 µM; with T-47D breast it was 2.2 µM.
